Results published in ChEMBL document CHEMBL1201862, “PubChem BioAssay data set” (2004).
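Each compound was tested at five concentrations against cells in 96-well plates for 48 hours. GI50: concentration for 50% inhibition of growth.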 Activity calls are given as the source filed them. Rule as the data show it: active = GI50 up to about 1.1 µM and inactive = higher.

What was measured:
Assay in all cases: DTP human tumour cell line panel, 48 h
HCT-15 = test system: HCT-15
HL-60 = test system: HL-60
HOP-62 = test system: HOP-62
KM12 = test system: KM12
LOX IMVI = test system: LOX IMVI
Malme-3M = test system: Malme-3M
NCI-H226 = test system: NCI-H226
NCI-H460 = test system: NCI-H460
NCI-H522 = test system: NCI-H522
RXF 393 = test system: RXF 393
SF-268 = test system: SF-268
SF-539 = test system: SF-539
SK-OV-3 = test system: SK-OV-3
SNB-19 = test system: SNB-19
EKVX = test system: EKVX

SMILES	GI50 (HCT-15) [µM]	GI50 (HL-60)	GI50 (HOP-62)	GI50 (KM12)	GI50 (LOX IMVI)	GI50 (Malme-3M)	GI50 (NCI-H226)	GI50 (NCI-H460)	GI50 (NCI-H522)	GI50 (RXF 393)	GI50 (SF-268)	GI50 (SF-539)	GI50 (SK-OV-3)	GI50 (SNB-19)	GI50 (EKVX)
CC1OC(n2cc(F)c(=O)[nH]c2=O)CCC1=O (stereo unspecified)	95.3	74.6 µM (inactive)	50.8 µM (inactive)	92.9 µM (inactive)	88.1 µM (inactive)	> 100 µM (inactive)	> 100 µM (inactive)	32.2 µM (inactive)	> 100 µM (inactive)	> 100 µM (inactive)	> 100 µM (inactive)	10.4 µM (inactive)	> 100 µM (inactive)	> 100 µM (inactive)	
CN(C)C(=Nc1nc(N(C)C)s[s+]1)N(C)C	> 100	> 100 µM (inactive)	> 100 µM (inactive)	> 100 µM (inactive)			72.8 µM (inactive)	> 100 µM (inactive)	> 100 µM (inactive)	> 100 µM (inactive)	> 100 µM (inactive)	> 100 µM (inactive)	> 100 µM (inactive)	> 100 µM (inactive)	> 100 µM (inactive)
CCCCCCCCCCCCNC1(C)CNCCCNCCNCCCNC1		0.726 µM (active)	1.98 µM (inactive)	1.53 µM (inactive)	1.84 µM (inactive)	2.01 µM (inactive)	1.51 µM (inactive)	1.33 µM (inactive)	1.82 µM (inactive)	1.56 µM (inactive)	1.34 µM (inactive)	1.87 µM (inactive)	1.82 µM (inactive)	1.76 µM (inactive)	3.56 µM (inactive)
CCOc1ccc(NC(=O)CC2Sc3ccccc3NC2=O)cc1 (stereo unspecified)	56.8	> 100 µM (inactive)	44.9 µM (inactive)	28.3 µM (inactive)		97.5 µM (inactive)	> 100 µM (inactive)	90.2 µM (inactive)	> 100 µM (inactive)		53 µM (inactive)	45.3 µM (inactive)	41.3 µM (inactive)	54.1 µM (inactive)	> 100 µM (inactive)
OC1(C23CC4CC(CC(C4)C2)C3)CSCC1(O)C12CC3CC(CC(C3)C1)C2 (stereo unspecified)		> 10 µM (inactive)	> 100 µM (inactive)	> 100 µM (inactive)		> 100 µM (inactive)	> 100 µM (inactive)		> 100 µM (inactive)		> 100 µM (inactive)	> 100 µM (inactive)	> 100 µM (inactive)	> 100 µM (inactive)	> 100 µM (inactive)
COC(=O)/C(=C/CC(N=C(c1ccccc1)c1ccccc1)C(=O)OC)N=C(c1ccccc1)c1ccccc1 (stereo unspecified)	> 100	> 100 µM (inactive)	> 100 µM (inactive)	> 100 µM (inactive)	> 100 µM (inactive)	> 100 µM (inactive)		> 100 µM (inactive)	38.5 µM (inactive)	26.1 µM (inactive)	> 100 µM (inactive)		39 µM (inactive)	> 100 µM (inactive)	> 100 µM (inactive)
Cn1nc2ccccc2cc1=O	> 100		> 100 µM (inactive)	> 100 µM (inactive)	> 100 µM (inactive)	> 100 µM (inactive)	> 100 µM (inactive)	> 100 µM (inactive)			> 100 µM (inactive)	> 100 µM (inactive)	> 100 µM (inactive)	> 100 µM (inactive)	> 100 µM (inactive)
CCOC(=O)c1cc(/C=C/C(C)=C/C(=O)OC)oc1-c1ccccc1	58.9	46.2 µM (inactive)		48.4 µM (inactive)	> 100 µM (inactive)	> 100 µM (inactive)	> 100 µM (inactive)	65.3 µM (inactive)	39.7 µM (inactive)		40.8 µM (inactive)	43.9 µM (inactive)	> 100 µM (inactive)	38.5 µM (inactive)	> 100 µM (inactive)
N#CC1=C(c2ccccc2)NN(Cc2ccccc2)C(c2ccc(Cl)cc2)CC1=O (stereo unspecified)	22.9	28.2 µM (inactive)		25.8 µM (inactive)	18 µM (inactive)		57.8 µM (inactive)	18 µM (inactive)	12.7 µM (inactive)	22.3 µM (inactive)	29.3 µM (inactive)		> 10 µM (inactive)	22.5 µM (inactive)	
CC#CC1C(OC(=O)c2ccccc2)CCCC1(CI)N=[N+]=[N-] (stereo unspecified)	45.2	15.1 µM (inactive)	94 µM (inactive)	89.7 µM (inactive)		> 100 µM (inactive)	84.3 µM (inactive)	60.7 µM (inactive)	22.4 µM (inactive)	52 µM (inactive)	67 µM (inactive)	> 100 µM (inactive)	> 100 µM (inactive)		55.1 µM (inactive)
Cc1nc(C(N)=S)sc1C(=O)/C=C/c1cccc(O)c1	> 100	36.1 µM (inactive)	> 100 µM (inactive)	32.4 µM (inactive)	45.2 µM (inactive)	> 100 µM (inactive)	> 100 µM (inactive)	> 100 µM (inactive)	90.4 µM (inactive)	> 100 µM (inactive)	87.3 µM (inactive)	> 100 µM (inactive)	> 100 µM (inactive)		> 100 µM (inactive)
CSc1nc(NC2OC(COC(C)=O)C(OC(C)=O)C(OC(C)=O)C2OC(C)=O)c2c(n1)OCC2=O (stereo unspecified)	> 100	> 100 µM (inactive)	> 100 µM (inactive)	> 100 µM (inactive)	> 100 µM (inactive)	> 100 µM (inactive)	> 100 µM (inactive)	> 100 µM (inactive)	> 100 µM (inactive)		> 100 µM (inactive)	> 100 µM (inactive)	> 100 µM (inactive)	> 100 µM (inactive)	
COC(OC)c1cc2c(cc1C(=O)[C@@]13CCC[C@@H]1NC(=O)O3)OCO2		> 100 µM (inactive)	> 100 µM (inactive)	> 100 µM (inactive)		22.6 µM (inactive)	> 100 µM (inactive)	> 100 µM (inactive)	> 100 µM (inactive)	52.2 µM (inactive)	> 100 µM (inactive)	> 100 µM (inactive)	> 100 µM (inactive)	91.2 µM (inactive)	> 100 µM (inactive)
Cc1ccc2[nH]c3c(C)c4c(c(C)c3c2c1)CN(C)C=C4	13.8	4.46 µM (inactive)	0.743 µM (active)	0.54 µM (active)	3.93 µM (inactive)		0.353 µM (active)	2.74 µM (inactive)	0.152 µM (active)	1.53 µM (inactive)	0.353 µM (active)	0.393 µM (active)	0.33 µM (active)	0.52 µM (active)	1.17 µM (inactive)
c1ccc2[nH]c(CNc3ccc(C4C[Se]N=N4)cc3)nc2c1 (stereo unspecified)	> 100	28.2 µM (inactive)	> 100 µM (inactive)	26.4 µM (inactive)	40.6 µM (inactive)	25.3 µM (inactive)		41.2 µM (inactive)	29 µM (inactive)	> 100 µM (inactive)	47.3 µM (inactive)	> 100 µM (inactive)	> 100 µM (inactive)	84.1 µM (inactive)	
O=C(O)CC[C@H](NC(=O)c1ccc(-n2nc3ccc(=O)cc-3[nH]c2=O)cc1)C(=O)O	> 100	> 100 µM (inactive)	> 100 µM (inactive)	> 100 µM (inactive)		> 100 µM (inactive)		> 100 µM (inactive)	> 100 µM (inactive)	> 100 µM (inactive)	> 100 µM (inactive)	> 100 µM (inactive)		> 100 µM (inactive)	> 100 µM (inactive)
